Test results reported in article PMC7864192 (Cancers, 2021).
pIC50: −log10 of the molar value. Where two headings read alike, the source gives them in different places.

How the values were obtained:
[1] = tested on: GCPA096 T1.XV patient-derived AGCT cell line; experiment: Cell viability drug screen (Cell Titer Glo 2.0, 72 h), mono- and combination therapy, GCPA096T1.XV; settings: for pIC50: Homo sapiens
[2] = tested on: GCPA096 T1.I patient-derived AGCT cell line; experiment: Cell viability drug screen (Cell Titer Glo 2.0, 72 h), mono- and combination therapy, GCPA096T1.I; settings: for pIC50: read-out: IC50 in monotherapy
Protocol: (§1) Cell lines were seeded at a density of 500 cells/well in 40 uL in 384-well plates (Corning, NY, USA) with the Multidrop™ cell dispenser (Thermo Fischer Scientific, Waltham, MA, USA) and sealed with Breathe-Easy® membrane (Sigma-Aldrich, St. Louis, MO, USA) to prevent evaporation. […] For each cell line, three biological repeats and two technical repeats each were performed in order to ensure the validity of the drug screens. […] Subsequently, 11 drugs and 12 drug combinations were dispensed and all wells (excluding blanks and non-DMSO control wells) were normalized to 1% DMSO using the HP Tecan D300e Digital Dispenser (Hewlett-Packard, Palo Alto, CA, USA). […] Next, the plates were covered with the Breathe-Easy membrane and incubated. After 72 h, the Multidrop dispensed 15 uL per well of Cell Titer Glo 2.0 (Thermo Fischer Scientific, Waltham, MA, USA) and plates were incubated in the dark for 10 min. After incubation, luminescence excitation was assessed in the Spectramax reader (Molecular Devices, San Jose, CA, USA) (top read, luminescence excitation at 500 nm) and raw data were processed in Microsoft Excel to subtract background luminescence. The Z-factor, a mathematical method used to quantify the quality of a drug screen based on the calculation of the separation band between the values of the positive and negative controls, was utilized to assess the quality of drug screens [54]. Screens with a Z-factor value of >0.5 were used for further analysis.
(§2) Overall cell survival (in %) was plotted against the drug concentration range of each drug (in log10[μM]) using GraphPad Prism 8.3.1. Values that exceeded 100% survival (within +20% biological deviation) were normalized to 100% survival. Similarly, values below 0% cell survival (within −20% biological deviation) were normalized to 0% survival. Values exceeding this deviation were excluded. Dose–response curves were obtained using the model “log(inhibitor) vs. variable slope (normalized response)” to fit the dose–response curves and R^2 values were used to indicate how well the model fit the data (Supplementary Materials Figures S4 and S5). […] The IC50 values were calculated based on the Chou–Talalay method using Compusyn software [55]. For anti-hormonal treatment, mostly provided as maintenance therapy, we used IC10 values in addition to the IC50.
(§3) In addition to the 11 monotherapies, 12 drug combinations were tested (Table 3) simultaneously with the individual drug treatments in the same 384-well plate. […] Synergy was evaluated using the mass action law, a systematic analysis assessing dose–response dynamics in a cost-effective manner [56, 57]. The combination index (CI) was used to indicate antagonistic (CI > 1) additive (CI = 1) and synergistic (CI < 1) effects [55].

[3] = tested on: GCPA028 T1.II patient-derived AGCT cell line; experiment: Cell viability drug screen (Cell Titer Glo 2.0, 72 h), mono- and combination therapy, GCPA028; settings: for pIC50: read-out: IC50 in monotherapy
Protocol: (§4) Cell lines were seeded at a density of 500 cells/well in 40 uL in 384-well plates (Corning, NY, USA) with the Multidrop™ cell dispenser (Thermo Fischer Scientific, Waltham, MA, USA) and sealed with Breathe-Easy® membrane (Sigma-Aldrich, St. Louis, MO, USA) to prevent evaporation. The SVOG-3e line was seeded at 1000 cells/well due to contact-dependent growth requirements. For each cell line, three biological repeats and two technical repeats each were performed in order to ensure the validity of the drug screens. […] Subsequently, 11 drugs and 12 drug combinations were dispensed and all wells (excluding blanks and non-DMSO control wells) were normalized to 1% DMSO using the HP Tecan D300e Digital Dispenser (Hewlett-Packard, Palo Alto, CA, USA). All drugs were applied in linear concentration ranges (Table 2), including 16 data points to enable combination drug testing at constant ratios (Table 3). Next, the plates were covered with the Breathe-Easy membrane and incubated. After 72 h, the Multidrop dispensed 15 uL per well of Cell Titer Glo 2.0 (Thermo Fischer Scientific, Waltham, MA, USA) and plates were incubated in the dark for 10 min. After incubation, luminescence excitation was assessed in the Spectramax reader (Molecular Devices, San Jose, CA, USA) (top read, luminescence excitation at 500 nm) and raw data were processed in Microsoft Excel to subtract background luminescence. […] Screens with a Z-factor value of >0.5 were used for further analysis.
(§5) Overall cell survival (in %) was plotted against the drug concentration range of each drug (in log10[μM]) using GraphPad Prism 8.3.1. Values that exceeded 100% survival (within +20% biological deviation) were normalized to 100% survival. Similarly, values below 0% cell survival (within −20% biological deviation) were normalized to 0% survival. Values exceeding this deviation were excluded. Dose–response curves were obtained using the model “log(inhibitor) vs. variable slope (normalized response)” to fit the dose–response curves and R^2 values were used to indicate how well the model fit the data (Supplementary Materials Figures S4 and S5). […] The maximum plasma concentration (Cmax) and the plasma concentration at steady state (Css) were used as toxicity thresholds. The Cmax was utilized for drugs in which short, high-dosage time courses are required, while the Css was used for maintenance therapy regimes such as anti-hormonal treatment. […] The IC50 values were calculated based on the Chou–Talalay method using Compusyn software [55]. For anti-hormonal treatment, mostly provided as maintenance therapy, we used IC10 values in addition to the IC50.
as §3

[4] = tested on: GCPA113 T1.III patient-derived AGCT cell line; experiment: Cell viability drug screen (Cell Titer Glo 2.0, 72 h), mono- and combination therapy, GCPA113T1.III; settings: for pIC50: read-out: IC50 in monotherapy
[5] = tested on: GCPA108 T3.IV patient-derived AGCT cell line; experiment: Cell viability drug screen (Cell Titer Glo 2.0, 72 h), mono- and combination therapy, GCPA108T3.IV; settings: for pIC50: read-out: IC50 in monotherapy
[6] = tested on: GCPA096 T1.V patient-derived AGCT cell line; experiment: Cell viability drug screen (Cell Titer Glo 2.0, 72 h), mono- and combination therapy, GCPA096T1.V; settings: for pIC50: Homo sapiens
Protocol: as §4, §5, §3

[7] = tested on: GCPA096 T1.II patient-derived AGCT cell line; experiment: Cell viability drug screen (Cell Titer Glo 2.0, 72 h), mono- and combination therapy, GCPA096T1.II; settings: for pIC50: Homo sapiens
Protocol: as §4, §5, §3

[8] = tested on: GCPA096 T1.XVI patient-derived AGCT cell line; experiment: Cell viability drug screen (Cell Titer Glo 2.0, 72 h), mono- and combination therapy, GCPA096T1.XVI; settings: for pIC50: read-out: IC50 in monotherapy
[9] = tested on: GCPA113 T1.II patient-derived AGCT cell line; experiment: Cell viability drug screen (Cell Titer Glo 2.0, 72 h), mono- and combination therapy, GCPA113T1.II; settings: for pIC50: read-out: IC50 in monotherapy
Protocol: as §1, §2, §3

[10] = tested on: GCPA007 T2.I patient-derived AGCT cell line; experiment: Cell viability drug screen (Cell Titer Glo 2.0, 72 h), mono- and combination therapy, GCPA007T2.I; settings: for pIC50: read-out: IC50 in monotherapy
[11] = tested on: GCPA113 T1.I patient-derived AGCT cell line; experiment: Cell viability drug screen (Cell Titer Glo 2.0, 72 h), mono- and combination therapy, GCPA113T1.I; settings: for pIC50: read-out: IC50 in monotherapy
[12] = tested on: GCPA007 T2.IV patient-derived AGCT cell line; experiment: Cell viability drug screen (Cell Titer Glo 2.0, 72 h), mono- and combination therapy, GCPA007T2.IV; settings: for pIC50: read-out: IC50 in monotherapy
Protocol: as §1, §2, §3

[13] = tested on: KGN cells (AGCT cell line); experiment: Cell viability drug screen (Cell Titer Glo 2.0, 72 h), mono- and combination therapy, KGN
Protocol: KGN was cultured in conditions identical to AGCT-patient-derived cell lines.
as §4, §2

[14] = cited from earlier work; for Cmax: read-out: Cmax/Css plasma
[15] = tested on: aromatase inhibitor resistant metastatic breast cancer; settings: everolimus added to tamoxifen; postmenopausal women; cited from earlier work
AGCT cell lines = experiment: Cell viability drug screen (72 h), summary over AGCT cell lines (12 patient-derived, with or without KGN); assay type: cell-based, human; settings: everolimus with chemotherapy; 13 cell lines
Protocol: Cell lines were seeded at a density of 500 cells/well in 40 uL in 384-well plates (Corning, NY, USA) with the Multidrop™ cell dispenser (Thermo Fischer Scientific, Waltham, MA, USA) and sealed with Breathe-Easy® membrane (Sigma-Aldrich, St. Louis, MO, USA) to prevent evaporation. The SVOG-3e line was seeded at 1000 cells/well due to contact-dependent growth requirements. For each cell line, three biological repeats and two technical repeats each were performed in order to ensure the validity of the drug screens. […] Subsequently, 11 drugs and 12 drug combinations were dispensed and all wells (excluding blanks and non-DMSO control wells) were normalized to 1% DMSO using the HP Tecan D300e Digital Dispenser (Hewlett-Packard, Palo Alto, CA, USA). All drugs were applied in linear concentration ranges (Table 2), including 16 data points to enable combination drug testing at constant ratios (Table 3). Next, the plates were covered with the Breathe-Easy membrane and incubated. After 72 h, the Multidrop dispensed 15 uL per well of Cell Titer Glo 2.0 (Thermo Fischer Scientific, Waltham, MA, USA) and plates were incubated in the dark for 10 min. After incubation, luminescence excitation was assessed in the Spectramax reader (Molecular Devices, San Jose, CA, USA) (top read, luminescence excitation at 500 nm) and raw data were processed in Microsoft Excel to subtract background luminescence. The Z-factor, a mathematical method used to quantify the quality of a drug screen based on the calculation of the separation band between the values of the positive and negative controls, was utilized to assess the quality of drug screens [54]. Screens with a Z-factor value of >0.5 were used for further analysis.
as §5, §3

[16] = 72 h, read-out: IC50 in monotherapy
[17] = human maximum or steady state plasma concentration, log10 of the uM value
[18] = human plasma Cmax/Css, log10 of uM value, from phase I/II clinical trials
[19] = human plasma maximum/steady state concentration, ref phase I/II clinical trials
[20] = human plasma, maximum or steady state concentration, log10 of uM value
[21] = human plasma, log10 of uM, phase I/II trials
[22] = human maximum or steady state plasma concentration
[23] = human plasma Cmax/Css, from phase I/II clinical trials
[24] = human plasma, maximum or steady state concentration
[25] = human plasma, phase I/II trials
[26] = Homo sapiens, 72 h, read-out: IC50 in monotherapy

For `Nc1nc2c(ncn2[C@H]2C[C@H](O)[C@@H](CO)O2)c(=S)[nH]1` [6thio-2dG, 6-THIO-2dG], the “DRI (Fa=0,5)” value ([1]; GCPA096T1XV, drug within Carbo+Pacli+6thio2dG) was 13.49, the IC50 ([1]; read-out: IC50 in monotherapy, GCPA096T1XV, single drug, 72 h, unit not given (compared with Cmax/Css in uM)) was greater than 50 µM and the “DRI (Fa=0,5)” value ([2]; GCPA096T1I, in combination Carbo+Pacli+6thio2dG) was 10.9. The pIC50 ([2]; GCPA096T1I, monotherapy) was less than 4.30, the “DRI (Fa=0,5)” value ([3]; GCPA028, in combination Carbo+Pacli+6thio2dG) was 0.16 and the pIC50 ([3]; GCPA028, monotherapy) was less than 4.30. The “DRI (Fa=0,5)” value ([4]; GCPA113T1III, drug within Carbo+Pacli+6thio2dG) was 4.5, the pIC50 ([4]; GCPA113T1III, monotherapy) was less than 4.30 and the “DRI (Fa=0,5)” value ([5]; GCPA108T3IV, in Carbo+Pacli+6thio2dG) was 6.093. The pIC50 ([5]; GCPA108T3IV, monotherapy) was less than 4.30, the “DRI (Fa=0,5)” value ([6]; GCPA096T1V, drug within Carbo+Pacli+6thio2dG) was 9.08 and the IC50 ([6]; read-out: IC50 in monotherapy, GCPA096T1V, single drug, 72 h, unit not given (compared with Cmax/Css in uM)) was greater than 50 µM. For the same molecule, the “DRI (Fa=0,5)” value ([7]; GCPA096T1II, drug within Carbo+Pacli+6thio2dG) was 12.35, the IC50 ([7]; read-out: IC50 in monotherapy, GCPA096T1II, single drug, 72 h, unit not given (compared with Cmax/Css in uM)) was greater than 50 µM and the “DRI (Fa=0,5)” value ([8]; GCPA096T1XVI, in Carbo+Pacli+6thio2dG) was 1.78. For the same molecule, the pIC50 ([8]; GCPA096T1XVI, monotherapy) was 4.36, the “DRI (Fa=0,5)” value ([9]; GCPA113T1II, drug within Carbo+Pacli+6thio2dG) was 3.71 and the pIC50 ([9]; GCPA113T1II, monotherapy) was less than 4.30. The “DRI (Fa=0,5)” value ([10]; in Carbo+Pacli+6thio2dG (10:1:1), GCPA007T2I) was 2.27, the pIC50 ([10]; GCPA007T2I, cell viability 72 h after drug application) was less than 4.30 and the “DRI (Fa=0,5)” value ([11]; GCPA113T1I, in Carbo+Pacli+6thio2dG) was 3.54. For the same molecule, the pIC50 ([11]; GCPA113T1I, monotherapy) was less than 4.30, the “DRI (Fa=0,5)” value ([12]; GCPA007T2IV, in combination Carbo+Pacli+6thio2dG) was 0.95 and the pIC50 ([12]; GCPA007T2IV, monotherapy) was less than 4.30. The “DRI (Fa=0,5)” value ([13]; drug within Carbo+Pacli+6thio2dG) was 4.961 and the pIC50 ([13]; read-out: IC50 in monotherapy, monotherapy) was less than 4.30.

Work on `Cc1nc(Nc2ncc(C(=O)Nc3c(C)cccc3Cl)s2)cc(N2CCN(CCO)CC2)n1` [Dasatinib] yielded a pIC50 [1, 16] of less than 4.70, a pIC50 ([2]; Homo sapiens, 72 h) of 4.85 and a pIC50 ([3]; Homo sapiens, 72 h) of less than 4.70. For the same molecule, the pIC50 ([4]; Homo sapiens, 72 h) was 4.74, the pIC50 ([5]; Homo sapiens, 72 h) was 5.33 and the pIC50 [6, 16] was less than 4.70. The “Cmax/Css plasma (Log 10)” value [14, 17] was -0.9208 Log 10, the “Cmax/Css plasma (Log 10)” value [14, 18] was -0.9208 Log 10 and the “Cmax/Css plasma (Log 10)” value [14, 19] was -0.9208 Log 10. The “Cmax/Css plasma (Log 10)” value [14, 20] was -0.9208, the “Cmax/Css plasma (Log 10)” value [14, 21] was -0.9208 and the Cmax [14, 22] was 120 nM. The Cmax [14, 23] was 120 nM, the Cmax [14, 19] was 120 nM and the Cmax [14, 24] was 120 nM. For the same molecule, the Cmax [14, 25] was 120 nM, the pIC50 [7, 16] was less than 4.70 and the pIC50 ([8]; Homo sapiens, 72 h) was less than 4.70. The pIC50 ([9]; Homo sapiens, 72 h) was less than 4.70, the pIC50 ([10]; Homo sapiens, 72 h) was less than 4.70 and the pIC50 ([11]; Homo sapiens, 72 h) was less than 4.70. For the same molecule, the pIC50 ([12]; Homo sapiens, 72 h) was less than 4.70 and the pIC50 [13, 26] was 5.32.

With `CO[C@H]1C[C@@H]2CC[C@@H](C)[C@@](O)(O2)C(=O)C(=O)N2CCCC[C@H]2C(=O)O[C@H]([C@H](C)C[C@@H]2CC[C@@H](OCCO)[C@H](OC)C2)CC(=O)[C@H](C)/C=C(\C)[C@@H](O)[C@@H](OC)C(=O)[C@H](C)C[C@H](C)/C=C/C=C/C=C/1C` [Everolimus] the “DRI (Fa=0,5)” value ([1]; GCPA096T1XV, drug within Everolimus+Alpelisib) was 16.55, the pIC50 [1, 16] was less than 4.30 and the “DRI (Fa=0,5)” value ([2]; GCPA096T1I, in combination Everolimus+Alpelisib) was 6.9. For the same molecule, the pIC50 ([2]; Homo sapiens, 72 h) was 4.49, the pIC50 ([2]; Homo sapiens) was 4.49 and the “DRI (Fa=0,5)” value ([3]; GCPA028, in combination Everolimus+Alpelisib) was 2.64. The pIC50 ([3]; Homo sapiens, 72 h) was 4.52, the pIC50 ([3]; Homo sapiens) was 4.52 and the “DRI (Fa=0,5)” value ([4]; GCPA113T1III, drug within Everolimus+Alpelisib) was 23.74. For the same molecule, the pIC50 ([4]; Homo sapiens, 72 h) was less than 4.30, the pIC50 ([4]; Homo sapiens) was less than 4.30 and the “DRI (Fa=0,5)” value ([5]; GCPA108T3IV, in Everolimus+Alpelisib) was 76.7983. For the same molecule, the pIC50 ([5]; Homo sapiens, 72 h) was less than 4.30, the pIC50 ([5]; Homo sapiens) was less than 4.30 and the “DRI (Fa=0,5)” value ([6]; GCPA096T1V, drug within Everolimus+Alpelisib) was 12.7. For the same molecule, the pIC50 [6, 16] was less than 4.30, the “Cmax/Css plasma (Log 10)” value [14, 17] was -1.19 Log 10 and the “Cmax/Css plasma (Log 10)” value [14, 18] was -1.19 Log 10. For the same molecule, the “Cmax/Css plasma (Log 10)” value [14, 19] was -1.19 Log 10, the “Cmax/Css plasma (Log 10)” value [14, 20] was -1.19 and the “Cmax/Css plasma (Log 10)” value [14, 21] was -1.19. For the same molecule, the Cmax [14, 22] was 64.6 nM, the Cmax [14, 23] was 64.6 nM and the Cmax [14, 19] was 64.6 nM. The Cmax [14, 24] was 64.6 nM, the Cmax [14, 25] was 64.6 nM and the “increase of time to progression” value [15] was 4.1 months. For the same molecule, the “reduction of death risk” value [15] was 55%, the “DRI (Fa=0,5)” value ([7]; GCPA096T1II, drug within Everolimus+Alpelisib) was 13.23 and the pIC50 [7, 16] was less than 4.30. The “cell lines with some degree of synergy” value (AGCT cell lines) was 9 of the 13, the “DRI (Fa=0,5)” value ([8]; GCPA096T1XVI, in Everolimus+Alpelisib) was 4.73 and the pIC50 ([8]; Homo sapiens, 72 h) was 4.48. For the same molecule, the pIC50 ([8]; Homo sapiens) was 4.48, the “DRI (Fa=0,5)” value ([9]; GCPA113T1II, drug within Everolimus+Alpelisib) was 11.87 and the pIC50 ([9]; Homo sapiens, 72 h) was less than 4.30. The pIC50 ([9]; Homo sapiens) was less than 4.30, the pIC50 ([10]; Homo sapiens, 72 h) was 4.56 and the “DRI (Fa=0,5)” value ([10]; in Everolimus+Alpelisib (1:2), GCPA007T2I) was 3.15. For the same molecule, the “DRI (Fa=0,5)” value ([11]; GCPA113T1I, in Everolimus+Alpelisib) was 20.32, the pIC50 ([11]; Homo sapiens, 72 h) was less than 4.30 and the pIC50 ([11]; Homo sapiens) was less than 4.30. For the same molecule, the “DRI (Fa=0,5)” value ([12]; GCPA007T2IV, in combination Everolimus+Alpelisib) was 1.9, the pIC50 ([12]; Homo sapiens, 72 h) was less than 4.30 and the pIC50 ([12]; Homo sapiens) was less than 4.30. The pIC50 [13, 26] was 4.34, the pIC50 ([13]; Homo sapiens, read-out: IC50 in monotherapy) was 4.34 and the “DRI (Fa=0,5)” value ([13]; drug within Everolimus+Alpelisib) was 5.131.

Work on `C[C@]12CC[C@@H]3c4ccc(O)cc4C[C@@H](CCCCCCCCC[S+]([O-])CCCC(F)(F)C(F)(F)F)[C@H]3[C@@H]1CC[C@@H]2O` (stereo partly shown) [Fulvestrant] yielded a pIC50 [1, 16] of less than 4.00, a pIC50 ([2]; Homo sapiens, 72 h) of less than 4.00 and a pIC50 ([3]; Homo sapiens, 72 h) of 4.48. The pIC50 ([4]; Homo sapiens, 72 h) was less than 4.00, the pIC50 [6, 16] was less than 4.00 and the pIC50 [7, 16] was less than 4.00. For the same molecule, the pIC50 ([8]; Homo sapiens, 72 h) was less than 4.00, the IC50 in monotherapy ([9]; GCPA113T1II, monotherapy) was “Infinit” and the pIC50 ([10]; Homo sapiens, 72 h) was less than 4.00. The pIC50 ([11]; Homo sapiens, 72 h) was less than 4.00, the pIC50 ([12]; Homo sapiens, 72 h) was less than 4.00 and the pIC50 [13, 26] was less than 4.00.
